We go through six compounds from patent US9340590B2 (priority 2011, dated 2016).

This assay has as its target hNav1.7 (Homo sapiens, UniProt Q15858). In words: cell-based. It is filed as cell-based. The note with it: IonWorks Quattro, read-out: IWQ Use Nav1.7. A general note: The patch-clamp technique gives a direct electrical read-out from membranes.

SMILES strings stand for the structures. Like-named read-outs stand apart in the source and are kept apart here. Positions of bridges follow the written chain, without caps; N, C: chain ends. Residues, ends and D or L forms follow the SMILES beside them.

Chain of hNav1.7 (Q15858 whole entry, looked up): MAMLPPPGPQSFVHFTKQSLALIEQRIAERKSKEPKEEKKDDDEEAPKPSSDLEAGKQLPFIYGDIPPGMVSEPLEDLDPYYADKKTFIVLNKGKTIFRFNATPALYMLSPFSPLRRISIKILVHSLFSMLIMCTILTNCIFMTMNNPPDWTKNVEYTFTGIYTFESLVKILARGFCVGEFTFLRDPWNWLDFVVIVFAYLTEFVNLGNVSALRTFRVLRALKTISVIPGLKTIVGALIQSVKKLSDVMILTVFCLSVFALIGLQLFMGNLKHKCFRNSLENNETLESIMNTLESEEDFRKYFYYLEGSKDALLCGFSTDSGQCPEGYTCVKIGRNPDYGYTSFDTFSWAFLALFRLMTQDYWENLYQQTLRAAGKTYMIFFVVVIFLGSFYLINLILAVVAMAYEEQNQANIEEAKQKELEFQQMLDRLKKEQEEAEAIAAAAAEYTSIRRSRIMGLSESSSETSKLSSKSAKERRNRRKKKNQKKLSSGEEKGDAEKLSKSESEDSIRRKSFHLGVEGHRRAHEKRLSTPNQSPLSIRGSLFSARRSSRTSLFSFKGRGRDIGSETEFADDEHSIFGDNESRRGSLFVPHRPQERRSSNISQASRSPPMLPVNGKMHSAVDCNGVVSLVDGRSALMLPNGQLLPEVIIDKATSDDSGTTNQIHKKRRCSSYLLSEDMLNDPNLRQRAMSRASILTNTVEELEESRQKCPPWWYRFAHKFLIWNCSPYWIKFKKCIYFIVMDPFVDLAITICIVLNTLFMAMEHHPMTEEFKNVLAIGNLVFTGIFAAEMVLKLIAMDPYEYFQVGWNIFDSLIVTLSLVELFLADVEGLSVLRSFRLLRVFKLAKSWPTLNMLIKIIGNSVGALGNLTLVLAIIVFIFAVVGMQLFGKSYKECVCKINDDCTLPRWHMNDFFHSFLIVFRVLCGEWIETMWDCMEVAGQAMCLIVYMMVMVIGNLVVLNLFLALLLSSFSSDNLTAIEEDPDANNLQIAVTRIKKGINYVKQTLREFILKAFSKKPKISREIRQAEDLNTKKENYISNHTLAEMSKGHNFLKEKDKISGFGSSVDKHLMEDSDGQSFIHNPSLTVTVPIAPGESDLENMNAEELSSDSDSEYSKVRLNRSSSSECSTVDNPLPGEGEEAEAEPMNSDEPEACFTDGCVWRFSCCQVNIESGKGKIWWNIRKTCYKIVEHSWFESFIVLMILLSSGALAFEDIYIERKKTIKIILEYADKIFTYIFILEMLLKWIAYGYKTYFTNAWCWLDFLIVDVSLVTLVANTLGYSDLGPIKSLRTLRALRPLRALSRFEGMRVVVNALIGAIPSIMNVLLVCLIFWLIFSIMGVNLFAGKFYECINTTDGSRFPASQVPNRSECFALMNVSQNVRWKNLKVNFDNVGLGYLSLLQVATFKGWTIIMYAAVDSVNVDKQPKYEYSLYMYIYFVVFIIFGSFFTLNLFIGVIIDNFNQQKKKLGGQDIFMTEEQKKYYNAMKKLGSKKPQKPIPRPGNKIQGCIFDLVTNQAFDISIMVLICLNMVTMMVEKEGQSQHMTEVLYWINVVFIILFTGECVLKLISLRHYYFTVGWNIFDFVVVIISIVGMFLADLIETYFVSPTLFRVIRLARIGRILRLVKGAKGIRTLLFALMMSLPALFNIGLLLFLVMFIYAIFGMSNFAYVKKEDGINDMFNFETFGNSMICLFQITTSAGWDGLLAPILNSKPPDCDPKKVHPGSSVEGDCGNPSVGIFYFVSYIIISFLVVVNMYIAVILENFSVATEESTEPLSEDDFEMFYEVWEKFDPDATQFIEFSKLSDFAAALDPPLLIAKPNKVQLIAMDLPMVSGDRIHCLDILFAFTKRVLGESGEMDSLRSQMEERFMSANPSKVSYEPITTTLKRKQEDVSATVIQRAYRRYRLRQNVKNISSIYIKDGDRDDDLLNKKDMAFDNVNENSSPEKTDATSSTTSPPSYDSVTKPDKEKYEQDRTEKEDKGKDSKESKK

On to `CC[C@H](C)[C@@H]1NC(=O)[C@@H]2CSSC[C@@H]3NC(=O)[C@H](C(C)C)NC(=O)[C@H](CC(C)C)NC(=O)[C@H](CCCNC(=N)N)NC(=O)[C@@H]4CCCN4C(=O)[C@H](CCCNC(=N)N)NC(=O)[C@H](CSSC[C@H](NC(=O)[C@@H](N)CC(=O)O)C(=O)N[C@@H](CC(C)C)C(=O)NCC(=O)N[C@@H](Cc4ccccc4)C(=O)N[C@@H](CCSC)C(=O)N[C@@H](CCCNC(=N)N)C(=O)N[C@@H](CCCCN)C(=O)N2)NC(=O)[C@H](CSSC[C@@H](C(=O)N[C@@H](CCCCN)C(=O)N[C@@H](Cc2ccc(O)cc2)C(=O)N[C@H](C(=O)N[C@@H](Cc2ccccc2)C(N)=O)C(C)C)NC(=O)[C@H](Cc2c[nH]c4ccccc24)NC(=O)[C@H](CCCCN)NC(=O)[C@H](Cc2c[nH]cn2)NC(=O)[C@H]([C@@H](C)O)NC(=O)[C@H](CCCNC(=N)N)NC(=O)[C@H](CO)NC3=O)NC(=O)[C@H](CCCCN)NC(=O)[C@H](CC(=O)O)NC(=O)[C@H](CC(N)=O)NC(=O)[C@H](CC(=O)O)NC(=O)[C@@H]2CCCN2C1=O` [compound 69] (H-DCLGFMRKCIPDNDKCCRPRLVCSRTHKWCKYVF-NH2; disulfide 2-17, 9-23, 16-30), for which, for the setting “Use”, the IC50 came out at 170 nM. On to `CC[C@H](C)[C@@H]1NC(=O)[C@@H]2CSSC[C@@H]3NC(=O)[C@H](C(C)C)NC(=O)[C@H](CC(C)C)NC(=O)[C@H](CC(N)=O)NC(=O)[C@@H]4CCCN4C(=O)[C@H](CCCNC(=N)N)NC(=O)[C@H](CSSC[C@H](NC(=O)[C@@H](N)CC(=O)O)C(=O)N[C@@H](CC(C)C)C(=O)NCC(=O)N[C@@H](Cc4ccccc4)C(=O)N[C@@H](CCSC)C(=O)N[C@@H](CCCNC(=N)N)C(=O)N[C@@H](CCCCN)C(=O)N2)NC(=O)[C@H](CSSC[C@@H](C(=O)N[C@@H](CCCCN)C(=O)N[C@@H](Cc2ccc(O)cc2)C(=O)N[C@H](C(=O)N[C@@H](Cc2ccccc2)C(N)=O)C(C)C)NC(=O)[C@H](Cc2c[nH]c4ccccc24)NC(=O)[C@H](CCC(=O)O)NC(=O)[C@H](Cc2c[nH]cn2)NC(=O)[C@H]([C@@H](C)O)NC(=O)[C@H](CCCNC(=N)N)NC(=O)[C@H](CO)NC3=O)NC(=O)[C@H](CCCCN)NC(=O)[C@H](CC(=O)O)NC(=O)[C@H](CC(N)=O)NC(=O)[C@H](CC(=O)O)NC(=O)[C@@H]2CCCN2C1=O` [SEQ ID NO: 153, [Glu28]GpTx-1(1-34)] (H-DCLGFMRKCIPDNDKCCRPNLVCSRTHEWCKYVF-NH2; disulfide 2-17, 9-23, 16-30), for which, for the setting “Table 23, use, […]”, the IC50 stood at 340 nM. As to `CC[C@H](C)[C@@H]1NC(=O)[C@@H]2CSSC[C@@H]3NC(=O)[C@H](C(C)C)NC(=O)[C@H](CC(C)C)NC(=O)[C@H](CC(N)=O)NC(=O)[C@@H]4CCCN4C(=O)[C@H](CCCNC(=N)N)NC(=O)[C@H](CSSC[C@H](NC(=O)[C@@H](N)CC(=O)O)C(=O)N[C@@H](CC(C)C)C(=O)NCC(=O)N[C@@H](Cc4ccccc4)C(=O)N[C@@H](CCSC)C(=O)N[C@@H](CCCNC(=N)N)C(=O)N[C@@H](CCCCN)C(=O)N2)NC(=O)[C@H](CSSC[C@@H](C(=O)N[C@@H](CCCCN)C(=O)N[C@@H](Cc2ccc(O)cc2)C(=O)N[C@@H](CCCNC(=N)N)C(=O)N[C@@H](Cc2ccccc2)C(N)=O)NC(=O)[C@H](Cc2c[nH]c4ccccc24)NC(=O)[C@H](CCCCN)NC(=O)[C@H](Cc2c[nH]cn2)NC(=O)[C@H]([C@@H](C)O)NC(=O)[C@H](CCCNC(=N)N)NC(=O)[C@H](CO)NC3=O)NC(=O)[C@H](CCCCN)NC(=O)[C@H](CC(=O)O)NC(=O)[C@H](CC(N)=O)NC(=O)[C@H](CC(=O)O)NC(=O)[C@@H]2CCCN2C1=O` [compound 74] (H-DCLGFMRKCIPDNDKCCRPNLVCSRTHKWCKYRF-NH2; disulfide 2-17, 9-23, 16-30), under “Table 26, use, […]”, the IC50 was found to be 80 nM.

Consider `CSCC[C@@H]1NC(=O)[C@H](Cc2ccccc2)NC(=O)CNC(=O)[C@H](CC(C)C)NC(=O)[C@@H](NC(=O)[C@@H](N)CC(=O)O)CSSC[C@@H]2NC(=O)[C@@H]3CSSC[C@@H](C(=O)N[C@@H](CCCCN)C(=O)N[C@@H](Cc4ccc(O)cc4)C(=O)N[C@H](C(=O)N[C@@H](Cc4ccccc4)C(N)=O)C(C)C)NC(=O)[C@H](Cc4c[nH]c5ccccc45)NC(=O)[C@H](CCCCN)NC(=O)[C@H](Cc4c[nH]cn4)NC(=O)[C@H]([C@@H](C)O)NC(=O)[C@H](CCCNC(=N)N)NC(=O)[C@H](CO)NC(=O)[C@H](CSSC[C@H](NC(=O)[C@H](CCCCN)NC(=O)[C@H](CCCNC(=N)N)NC1=O)C(=O)N[C@@H](Cc1ccccc1)C(=O)N1CCC[C@H]1C(=O)N[C@@H](CC(=O)O)C(=O)N[C@@H](CC(N)=O)C(=O)N[C@@H](CC(=O)O)C(=O)N[C@@H](CCCCN)C(=O)N3)NC(=O)[C@H](C(C)C)NC(=O)[C@H](CC(C)C)NC(=O)[C@H](CC(N)=O)NC(=O)[C@@H]1CCCN1C(=O)[C@H](CCCNC(=N)N)NC2=O` [compound 302] (H-DCLGFMRKCFPDNDKCCRPNLVCSRTHKWCKYVF-NH2; disulfide 2-17, 9-23, 16-30), for which the IC50 (Use) worked out at 110 nM.

With `CC[C@H](C)[C@@H]1NC(=O)[C@@H]2CSSC[C@@H]3NC(=O)[C@H](C(C)C)NC(=O)[C@H](CC(C)C)NC(=O)[C@H](CC(N)=O)NC(=O)[C@@H]4CCCN4C(=O)[C@H](CCCNC(=N)N)NC(=O)[C@H](CSSC[C@H](NC(=O)[C@@H](N)CC(=O)O)C(=O)N[C@@H](CC(C)C)C(=O)N[C@@H](C)C(=O)N[C@@H](Cc4ccccc4)C(=O)N[C@@H](CCSC)C(=O)N[C@@H](CCCNC(=N)N)C(=O)N[C@@H](CCCCN)C(=O)N2)NC(=O)[C@H](CSSC[C@@H](C(=O)N[C@@H](CCCCN)C(=O)N[C@@H](Cc2ccc(O)cc2)C(=O)N[C@H](C(=O)N[C@@H](Cc2ccccc2)C(N)=O)C(C)C)NC(=O)[C@H](Cc2c[nH]c4ccccc24)NC(=O)[C@H](CCCCN)NC(=O)[C@H](Cc2c[nH]cn2)NC(=O)[C@H]([C@@H](C)O)NC(=O)[C@H](CCCNC(=N)N)NC(=O)[C@H](CO)NC3=O)NC(=O)[C@H](CCCCN)NC(=O)[C@H](CC(=O)O)NC(=O)[C@H](CC(N)=O)NC(=O)[C@H](CC(=O)O)NC(=O)[C@@H]2CCCN2C1=O` [SEQ ID NO: 141] (H-DCLAFMRKCIPDNDKCCRPNLVCSRTHKWCKYVF-NH2; disulfide 2-17, 9-23, 16-30), where the note is “clamped to −110 mV, depolarized to −10 mV, 5 min after compound, n=2”, the IC50 came out at 270 nM.

As to `CC[C@H](C)[C@@H]1NC(=O)[C@@H]2CSSC[C@@H]3NC(=O)[C@H](C(C)C)NC(=O)[C@H](CC(C)C)NC(=O)[C@H](CC(N)=O)NC(=O)[C@@H]4CCCN4C(=O)[C@H](CCCNC(=N)N)NC(=O)[C@H](CSSC[C@H](NC(=O)[C@@H](N)CC(=O)O)C(=O)N[C@@H](CC(C)C)C(=O)NCC(=O)N[C@@H](Cc4ccccc4)C(=O)N[C@@H](CCSC)C(=O)N[C@@H](CCCNC(=N)N)C(=O)N[C@@H](CCCCN)C(=O)N2)NC(=O)[C@H](CSSC[C@@H](C(=O)N[C@@H](CCCCN)C(=O)N[C@@H](Cc2ccc(O)cc2)C(=O)N[C@H](C(=O)N[C@@H](Cc2ccccc2)C(N)=O)C(C)C)NC(=O)[C@H](Cc2c[nH]c4ccccc24)NC(=O)[C@H](CCCCN)NC(=O)[C@H](Cc2c[nH]cn2)NC(=O)[C@H]([C@@H](C)O)NC(=O)[C@H](CCCNC(=N)N)NC(=O)[C@H](CO)NC3=O)NC(=O)[C@H](CCCCN)NC(=O)[C@H](CC(=O)O)NC(=O)[C@H](CC(N)=O)NC(=O)[C@H](CC(=O)O)NC(=O)[C@H](CCC(=O)O)NC1=O` [SEQ ID NO: 147, [Glu11]GpTx-1] (H-DCLGFMRKCIEDNDKCCRPNLVCSRTHKWCKYVF-NH2; disulfide 2-17, 9-23, 16-30), the IC50 (Use) was 220 nM.
